In patent US11274073B2, “TRPV1 modulator compounds” (ANTALGENICS, S.L., priority 2017, dated 2022):

How the values were obtained:
rat TRPV1 channel [1] = molecular target: T1, rat TRPV1 channel (Rattus norvegicus, UniProt O35433); experiment: Calcium microfluorometry assay on TRPV1-SH-SY5Y cells, single concentration 10 μM; assay type: cell-based; settings: for TRPV1 activation at 10 μM (% ± SD): compound 10 μM, Fluo-4 NW fluorescence, Cap (10 μM capsaicin) = 100%; for TRPV1 blockage at 10 μM (% ± SD): compound 10 μM before stimulation with 10 μM capsaicin, RR (10 μM Ruthenium Red) = 100%
T1 construct: expressed in transfected cells; host or cells: SH-SY5Y (human neuroblastoma) stably expressing rat TRPV1, under puromycin selection
T1 sequence (O35433 whole entry): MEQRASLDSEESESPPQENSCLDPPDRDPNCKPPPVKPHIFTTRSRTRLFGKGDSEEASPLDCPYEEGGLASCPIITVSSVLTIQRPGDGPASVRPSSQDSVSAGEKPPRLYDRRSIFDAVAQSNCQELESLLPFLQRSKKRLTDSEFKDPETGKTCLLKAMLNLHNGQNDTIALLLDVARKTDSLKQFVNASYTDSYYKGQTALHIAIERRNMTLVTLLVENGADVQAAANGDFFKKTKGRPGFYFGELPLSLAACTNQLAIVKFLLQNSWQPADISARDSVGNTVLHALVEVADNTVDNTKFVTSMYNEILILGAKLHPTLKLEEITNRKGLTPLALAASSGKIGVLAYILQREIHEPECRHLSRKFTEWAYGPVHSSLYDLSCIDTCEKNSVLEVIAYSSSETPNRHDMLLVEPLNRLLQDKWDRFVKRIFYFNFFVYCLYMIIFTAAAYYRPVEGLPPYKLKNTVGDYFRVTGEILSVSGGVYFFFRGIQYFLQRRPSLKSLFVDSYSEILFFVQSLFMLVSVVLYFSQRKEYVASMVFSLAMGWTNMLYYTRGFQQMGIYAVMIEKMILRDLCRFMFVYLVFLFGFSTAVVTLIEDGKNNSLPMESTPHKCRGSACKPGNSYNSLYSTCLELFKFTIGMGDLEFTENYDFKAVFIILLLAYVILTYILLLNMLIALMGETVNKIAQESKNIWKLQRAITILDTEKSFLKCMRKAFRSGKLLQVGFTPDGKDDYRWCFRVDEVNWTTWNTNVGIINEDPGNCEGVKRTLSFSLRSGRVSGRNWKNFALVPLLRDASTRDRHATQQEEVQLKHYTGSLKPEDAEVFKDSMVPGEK
Procedure: (§1) The activity of the compounds was determined on TRPV1 expressing cells (TRPV1-SH-SY5Y) by Calcium microfluorometry assay.
(§2) SH-SY5Y cells stably expressing rat TRPV1 channel (SH-SY5Y-TRPV1) were grown in Earle's minimum essential medium (MEM) containing 10% (v/v) of FCS, 1% nonessential amino acids, 2 mM L-glutamine, 100 μg/ml streptomycin, 100 U/ml penicillin, and 0.4 μg/ml puromycin in a humidity-controlled incubator with 5% CO2 and at 37° C. For fluorescence assays, cells expressing TRPV1 channel (TRPV1-SH-SY5Y) were seeded in 96-well plates (Corning Incorporated, Corning, N.Y.) at a cell density of 40,000 cells 2 days before treatment. The day of treatment the medium was replaced with 100 μL of the dye loading solution Fluo-4 NW supplemented with probenecid 2.5 mM. After incubation at 37° C. in a humidified atmosphere of 5% CO2 for 60 minutes, plates were transferred to a fluorescence plate reader (Polastar Omega BMG Labtech). The baseline fluorescence of Fluo-4 dye ([…]) was recorded for 4 cycles. […] The antagonist (10 μM Ruthenium Red for TRPV1) was added for the blockade. The changes in fluorescence intensity were recorded during 10 cycles more.

rat TRPV1 channel [2] = molecular target: T1, rat TRPV1 channel; experiment: Dose response measurements (EC50/IC50), calcium microfluorometry on TRPV1-SH-SY5Y cells; assay type: cell-based; settings: n=3 in 3 independent experiments; for EC50: TRPV1 activation; for IC50: TRPV1 blockage
Procedure: as §1, §2
Normalized responses (%) versus log [μM] were adjusted to a non-linear fit with variable slope, a four-parameter dose-response curve Y=100/(1+10^((LogEC50−X)*HillSlope)) where […] or just dose-response curve Y=100/(1+10^((LogEC50−X))). EC50 are expressed with 95% confident interval followed by r^2 for regression adjustment. All data are expressed as mean±standard error of the mean […]. Each condition was assessed by triplicate (n=3) in 3 independent experiments (N=3).

C57-mice = experiment: CFA-induced paw inflammation model of inflammatory pain, thermal hyperalgesia (paw withdrawal latency); assay type: in vivo; settings: 24 h after CFA
Procedure: Data are given as mean±SEM n=6. 2-way ANOVA with Bonferroni post hoc test. *P<0.05; **P<0.01, ***P<0.001, […].
One of the compounds with higher potency (Ex-37) was selected to be tested in a model of inflammatory pain. C57-mice (≈30 g) were used for the study. C57BL/6 were obtained from Janvier, France. Complete Freund's adjuvant (CFA) emulsion (1:1 oil/saline, 0.5 mg/ml) was injected into the plantar surface (10 μl) of the right hind paw (Garcia-Martinez et al., 2006). 24 h after CFA injection, compound Ex-37 was administered intravenously (at 1 mg/kg, 3 mg/kg or 10 mg/kg) or intraplantar (at 10 mg/kg, 30 mg/kg or 100 mg/kg)) on the right hind paw. Thermal hyperalgesia was monitored 24 h after CFA injection and up to 2 h after administering the compound with an Ugo Basile Dynamic Plantar Aesthesiometer as reported previously (Garcia-Martinez et al., 2006). In brief, mice were habituated to an apparatus consisting of individual Perspex boxes on an elevated glass table. A mobile radiant heat source was located under the table and focused on the hind paw. Paw withdrawal latencies were defined as the time taken by the mouse to remove its hind paw from the heat source. A cutoff point of 25 s was set to prevent tissue damage.

TRPV1 activation at 10 μM (% ± SD) (rat TRPV1 channel [1]) [%]	EC50 (rat TRPV1 channel [2]) [µM]	TRPV1 blockage at 10 μM (% ± SD) (rat TRPV1 channel [1]) [%]	SMILES	also measured
79.31 ± 6.41	0.04 ± 0.008		COc1cc(CNC(=O)COC(=O)CC/C(C)=C/CC/C(C)=C/CC/C=C(\C)CCC=C(C)CCC=C(C)C)ccc1O (stereo in doubt) [Ex-52, (4E,8E,12E,16E)-2-((4-hydroxy-3-methoxybenzyl)-amino)-2-oxoethyl 4,8,13, 17,21-pentamethyldocosa-4,8,12,16,20-pentaenoate]	
83.71 ± 6.00	0.015 ± 0.02		CC(C)=CCCC(C)=CCC/C(C)=C/CC/C=C(\C)CC/C=C(\C)CCC(=O)OCC(=O)NCc1ccc(O)c(O)c1 (stereo in doubt) [Ex-56, (4E,8E,12E,16E)-2-((3,4-dihydroxybenzyl)amino)-2-oxoethyl 4,8,13,17,21-pentamethyldocosa-4,8,12,16,20-pentaenoate]	
75.90 ± 2.49	0.28 ± 0.08		COc1cc(CNC(=O)COC(=O)/C=C(\C)CCC=C(C)C)ccc1O [Ex-32, (E)-2-((4-hydroxy-3-methoxy-benzyl)amino)-2-oxoethyl 3,7-dimethylocta-2,6-dienoate]	
		43.18 ± 10.07	CCCCCCCCCCCC(=O)OCC(=O)NCc1cc(OC)c(O)cc1I [Ex-37, 2-((4-hydroxy-2-iodo-5-methoxybenzyl)amino)-2-oxoethyl dodecanoate]	IC50 (rat TRPV1 channel [2]): 0.86 ± 0.51 µM; antinociceptive effect in the thermal hyperalgesia test, intraplantar (C57-mice; intraplantar at 10, 30 or 100 mg/kg on the right hind paw, FIG. 2): showed antinociceptive effects; antinociceptive effect in the thermal hyperalgesia test, intravenous (C57-mice; intravenously at 1, 3 or 10 mg/kg, FIG. 1): showed antinociceptive effects
		30.85 ± 5.87	CCCCC/C=C\C/C=C\C/C=C\C/C=C\CCCC(=O)OCC(=O)NCc1cc(OC)c(O)cc1I [Ex-51, (5Z,8Z,11Z,14Z)-2-((4-hydroxy-2-iodo-5-methoxy-benzyl)amino)-2-oxoethyl icosa-5,8,11,14-tetraenoate]	
77.42 ± 5.17	0.11 ± 0.02		CC(C)=CCC/C(C)=C/C(=O)OCC(=O)NCc1ccc(O)c(O)c1 [Ex-54, (E)-2-((3,4-dihydroxybenzyl)amino)-2-oxoethyl 3,7-dimethylocta-2,6-dienoate]	
		104.22 ± 12.65	CC(C)=CCC/C(C)=C/C(=O)OCC(=O)NCc1cc(O)c(O)cc1I [Ex-55, (E)-2-((4,5-dihydroxy-2-iodobenzyl)amino)-2-oxoethyl 3,7-dimethylocta-2,6-dienoate]	IC50 (rat TRPV1 channel [2]): 6.82 ± 1.38 µM
88.12 ± 9.76			CC(C)=CCC/C(C)=C/C(=O)OCC(=O)NCCc1ccc(O)c(O)c1 [Ex-58, (E)-2-((3,4-dihydroxyphenethyl)amino)-2-oxoethyl 3,7-dimethylocta-2,6-dienoate]	
		46.3 ± 12.70	CC(C)=CCC/C(C)=C/C(=O)OCC(=O)NCCc1cc(O)c(O)cc1I [Ex-59, (E)-2-((4,5-dihydroxy-2-iodophenethyl)amino)-2-oxoethyl 3,7-dimethylocta-2,6-dienoate]	
78.48 ± 4.61			CCCCCCCC/C=C\CCCCCCCC(=O)OCC(=O)NCCc1ccc(O)c(O)c1 [Ex-62, 2-((3,4-dihydroxyphenethyl)-amino)-2-oxoethyl oleate]	
		1.13 ± 5.56	CCCCCCCC/C=C\CCCCCCCC(=O)OCC(=O)NCCc1cc(O)c(O)cc1I [Ex-63, 2-((4,5-dihydroxy-2-iodophenethyl)amino)-2-oxoethyl oleate]	
		6.71 ± 2.18	CCCCC/C=C\C/C=C\C/C=C\C/C=C\CCCC(=O)OCC(=O)NCCc1cc(O)c(O)cc1I [Ex-65, (5Z,8Z,11Z,14Z)-2-((4,5-dihydroxy-2-iodophenethyl)-amino)-2-oxoethyl icosa-5,8,11,14-tetraenoate]	
		100	N.N.N.N.N.N.N.N.N.N.N.N.N.N.[Cl-].[Cl-].[Cl-].[Cl-].[Cl-].[Cl-].[O-2].[O-2].[Ru+3].[Ru+3].[Ru+4] [RR, Ruthenium Red, reference compound]	

SMILES	TRPV1 activation at 10 μM (% ± SD) (rat TRPV1 channel [1]) [%]	EC50 (rat TRPV1 channel [2]) [µM]	TRPV1 blockage at 10 μM (% ± SD) (rat TRPV1 channel [1]) [%]	also measured
CCCCCCCCCCCC(=O)OCC(=O)NCc1ccc(O)c(OC)c1 [Ex-36, 2-((4-hydroxy-3-methoxy-benzyl)amino)-2-oxoethyl dodecanoate]	74.80 ± 8.30	0.08 ± 0.03		
CCCCC/C=C\C/C=C\C/C=C\C/C=C\CCCC(=O)OCC(=O)NCc1ccc(O)c(OC)c1 [Ex-50, (5Z,8Z,11Z,14Z)-2-((4-hydroxy-3-methoxy-benzyl)amino)-2-oxoethyl icosa-5,8,11,14-tetraenoate]	73.80 ± 7.42			
CCCCC/C=C\C/C=C\C/C=C\C/C=C\CCCC(=O)OCC(=O)NCCc1ccc(O)c(O)c1 [Ex-64, (5Z,8Z,11Z,14Z)-2-((3,4-dihydroxyphenethyl)amino)-2-oxoethyl icosa-5,8,11,14-tetraenoate]	79.05 ± 11.25			
